Laboratory results taken from patent publication US11376232B2, “Vidofludimus for use in the treatment or prevention of viral diseases” (Immunic AG, priority 2020, dated 2022).
“And” between values parts separate entries of the source, which are not always exact repeats. Identical values can stand only once. Counter-ions that a name gives are not always drawn. Like-named read-outs stand apart in the source and are kept apart here.

Assays:
[1] = system: SARS-CoV-2; type: cell-based
[2] = target: mDHODH (Mus musculus, UniProt O35435); experiment: mDHODH inhibition, in vitro protein; type: biochemical
Chain of mDHODH (O35435 whole entry): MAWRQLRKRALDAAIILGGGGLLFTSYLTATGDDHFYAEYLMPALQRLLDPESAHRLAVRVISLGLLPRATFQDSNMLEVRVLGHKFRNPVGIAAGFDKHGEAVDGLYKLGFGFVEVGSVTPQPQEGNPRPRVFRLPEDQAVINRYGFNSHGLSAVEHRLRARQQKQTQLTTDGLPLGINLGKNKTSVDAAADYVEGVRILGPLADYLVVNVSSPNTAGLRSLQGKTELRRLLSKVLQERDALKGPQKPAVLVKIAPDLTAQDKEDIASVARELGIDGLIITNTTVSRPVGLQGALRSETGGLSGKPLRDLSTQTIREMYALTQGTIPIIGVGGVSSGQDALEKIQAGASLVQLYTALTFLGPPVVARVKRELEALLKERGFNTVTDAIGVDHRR

[3] = system: SARS-CoV-2; experiment: SARS-CoV-2 CPE inhibition (neutral red) in Vero 76 cells; type: cell-based; conditions: Severe acute respiratory syndrome coronavirus 2, Vero 76, 120 h, read-out: EC50: 50% effective antiviral concentration
[4] = Cytotoxicity in uninfected Vero 76 cells (neutral red); type: cell-based; conditions: African green monkey, Vero 76, day 5, neutral red, read-out: CC50: 50% cytotoxic concentration of compound without virus added
[5] = system: SARS-CoV-2 USA_WA1/2020; experiment: microbe, parasite or virus in culture; type: cell-based; conditions: Severe acute respiratory syndrome coronavirus 2, Vero 76
[6] = system: SARS-CoV-2 MUC-IMB-1; experiment: microbe, parasite or virus in culture; type: cell-based; conditions: Severe acute respiratory syndrome coronavirus 2, Vero 76
[7] = system: SARS-CoV-2 MUC-IMB-1; experiment: microbe, parasite or virus in culture; type: cell-based; conditions: Severe acute respiratory syndrome coronavirus 2, Vero
[8] = system: SARS-CoV-2 MUC-IMB-1; experiment: microbe, parasite or virus in culture; type: cell-based; conditions: Severe acute respiratory syndrome coronavirus 2, Caco-2
[9] = system: SARS-CoV-2; type: cell-based; conditions: CaCo-2 supernatants on Vero E6 monolayers, treatment setting
[10] = system: hyperactivated immune cells; experiment: T-cell mediated cytokine production of hyperactivated immune cells; type: cell-based
[11] = Clinical tolerability of repeated daily dosing; type: in vivo, human; conditions: clinical trials
[12] = system: SARS-CoV-2 infection (COVID-19)
[13] = human, in vivo
[14] = system: HIV-191US005 (CCR5-tropic, Subtype B); conditions: cited from earlier work
[15] = system: HCV sub genomic replicon of genotype 1b; conditions: cited from earlier work
[16] = system: Lassa fever Arena virus; conditions: Plaque reduction, virus protein expression; A549 and Vero models; cited from earlier work
[17] = in vitro; conditions: African green monkey
[18] = in vitro; conditions: African green monkey; remark: listed apart in the source
[19] = in vitro; conditions: human
[20] = Cytotoxicity on fibroblasts
[21] = Cytotoxicity on HepG2 cells; conditions: human
[22] = Cytotoxicity in Vero 76 cells (Table 4); conditions: African green monkey
[23] = system: Vero 76; experiment: Cytotoxicity in Vero 76 cells (Table 4); conditions: Vero 76, 3 days post infection
[24] = system: SARS-CoV-2 infection (COVID-19); experiment: Phase 2 placebo-controlled trial in hospitalized patients with moderate COVID-19; conditions: human, in vivo
[25] = system: Human T-cells; experiment: Proliferation assay of human T-cells (PHA-stimulated PBMCs, BrdU); type: cell-based; conditions: T-cell, PHA 20 μg/ml, 48 hours, BrdU ELISA
Description: Human peripheral blood mononuclear cells (PBMCs) were obtained from healthy volunteers and transferred to RPMI1640 cell culture medium containing 10% dialyzed fetal calf serum. 80.000 cells per well were pipetted into a 96-well plate and phytohemagglutinin (PHA) was added in phosphate buffered saline to a final concentration of 20 μg/ml to stimulate T-cell proliferation. Vidofludimus was added in dimethyl sulfoxide (DMSO, final concentration: 0.1 vol %) to final concentrations ranging from 20 nM to 50 μM. After incubation for 48 hours, cell proliferation was quantified using the “cell proliferation ELISA BrdU” (Roche) according to the manufacturer's instructions. Half maximal inhibition (IC50) was calculated using a 4-parameter sigmoidal curve fit.

[26] = target: EGFR (Homo sapiens, UniProt P00533); experiment: Off-target activity on EGFR; conditions: in contrast to leflunomide and teriflunomide
Chain of EGFR (P00533 25-1210, species assumed): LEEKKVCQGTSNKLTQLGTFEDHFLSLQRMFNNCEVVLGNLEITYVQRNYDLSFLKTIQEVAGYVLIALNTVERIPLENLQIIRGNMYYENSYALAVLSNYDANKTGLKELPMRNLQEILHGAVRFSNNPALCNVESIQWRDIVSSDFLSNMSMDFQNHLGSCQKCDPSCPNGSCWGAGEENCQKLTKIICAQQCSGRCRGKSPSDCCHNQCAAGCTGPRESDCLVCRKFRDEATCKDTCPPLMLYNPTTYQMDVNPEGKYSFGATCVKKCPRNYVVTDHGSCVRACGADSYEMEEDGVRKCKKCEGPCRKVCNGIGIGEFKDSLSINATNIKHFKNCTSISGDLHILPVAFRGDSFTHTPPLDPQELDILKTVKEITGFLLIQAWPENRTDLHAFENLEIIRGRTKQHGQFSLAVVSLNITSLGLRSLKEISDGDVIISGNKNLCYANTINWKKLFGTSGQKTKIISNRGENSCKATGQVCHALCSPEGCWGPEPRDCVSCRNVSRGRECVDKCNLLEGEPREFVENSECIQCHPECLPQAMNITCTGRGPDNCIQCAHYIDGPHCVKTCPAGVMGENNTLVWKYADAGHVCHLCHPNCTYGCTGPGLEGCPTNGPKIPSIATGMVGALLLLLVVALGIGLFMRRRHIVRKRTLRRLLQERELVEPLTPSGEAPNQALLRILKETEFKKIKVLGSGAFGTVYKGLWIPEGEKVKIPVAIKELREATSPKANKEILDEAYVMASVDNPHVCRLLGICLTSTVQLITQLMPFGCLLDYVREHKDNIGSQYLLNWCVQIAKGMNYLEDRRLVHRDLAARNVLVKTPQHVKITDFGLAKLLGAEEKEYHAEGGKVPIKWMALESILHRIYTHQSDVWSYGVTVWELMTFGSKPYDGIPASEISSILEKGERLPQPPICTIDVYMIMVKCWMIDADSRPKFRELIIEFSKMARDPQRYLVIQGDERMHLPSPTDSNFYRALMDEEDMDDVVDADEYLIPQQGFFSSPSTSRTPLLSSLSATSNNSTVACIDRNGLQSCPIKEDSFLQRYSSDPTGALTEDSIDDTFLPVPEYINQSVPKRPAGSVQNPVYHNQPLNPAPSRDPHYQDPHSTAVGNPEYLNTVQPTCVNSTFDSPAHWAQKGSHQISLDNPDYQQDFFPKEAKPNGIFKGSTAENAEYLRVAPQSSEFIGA

[27] = target: T1, Auroroa-A kinases (Homo sapiens, UniProt O14965); experiment: Off-target activity on Aurora-A kinase; conditions: in contrast to leflunomide and teriflunomide
T1 sequence (O14965 1-403): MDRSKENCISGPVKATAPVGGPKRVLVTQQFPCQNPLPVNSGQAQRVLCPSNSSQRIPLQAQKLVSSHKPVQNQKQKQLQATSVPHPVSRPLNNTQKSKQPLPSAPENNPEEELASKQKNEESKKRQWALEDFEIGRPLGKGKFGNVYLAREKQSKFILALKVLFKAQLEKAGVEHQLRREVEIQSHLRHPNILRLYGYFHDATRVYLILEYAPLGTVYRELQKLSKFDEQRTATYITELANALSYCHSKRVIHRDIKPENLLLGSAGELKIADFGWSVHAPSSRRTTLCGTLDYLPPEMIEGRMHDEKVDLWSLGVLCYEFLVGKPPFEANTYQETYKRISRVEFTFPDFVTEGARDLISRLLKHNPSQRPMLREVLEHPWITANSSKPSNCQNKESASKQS

[28] = system: bone marrow; experiment: Animal studies, effects on bone marrow; type: in vivo; conditions: animals treated with large doses
[29] = human, in vivo; remark: listed apart in the source
[30] = in vivo; cited from earlier work

## CCC(CC)COC(=O)[C@H](C)N[P@](=O)(OC[C@H]1O[C@@](C#N)(c2ccc3c(N)ncnn23)[C@H](O)[C@@H]1O)Oc1ccccc1 [Remdesivir, remdesivir, reference compound]
[1]; remdesivir 1 μM alone
  Virus titer: 5.0 CCID50/ml
[1]; remdesivir 5 μM alone
  Virus titer: 1.7 CCID50/ml
[1]; remdesivir 10 μM alone
  Virus titer: <0.67 CCID50/ml

## COc1cccc(-c2ccc(NC(=O)C3=C(C(=O)O)CCC3)c(F)c2)c1 [IMU-838, 1-cyclopentene-1-carboxylic acid, 2-(((3-fluoro-3′-methoxy(1,1′-biphenyl)-4-yl)amino)carbonyl)-, calcium salt (2:1)]
[2]
  IC50: 10 µM
[3]
  EC50: 6.1 µM
[4]
  CC50 at 5 days: 7.9 µM
[5]
  EC90: 6.2 ± 1.9 µM
[6]
  EC50: 10 µM
[7]
  EC50: 6.8 µM
[8]
  EC50: 7.5 to 15 µM
  EC90: 15 to 30 µM
[9]
  reduction of viral plaques: 58 fold
[1]; IMU-838 1 μM alone
  Virus titer: 5.7 CCID50/ml
[1]; IMU-838 5 μM alone
  Virus titer: 5.7 CCID50/ml
[1]; IMU-838 10 μM alone
  Virus titer: 4.5 CCID50/ml
[1]; all other concentrations (5, 1 μM), alone
  reduction of virus titer: did not reduce virus titer
[10]
  T-cell mediated cytokine production: able to block
[11]
  tolerated repeated daily dosing: up to 50 mg
[12]; IMU-838 treated patients
  COVID-19 related adverse events with increased intensity: 7.1%
[12]; blood
  reduction of C-reactive protein (CRP) vs placebo: more effective reduction
[12]; day 7, FAS, 2×22.5 mg + standard-of-care
  proportion of patients reaching clinical recovery: 18.5%
[12]; day 14, FAS
  proportion of patients reaching clinical improvement (as assessed by the investigators): 42.7%
[12]; day 14 and day 28
  anti-viral effect by viral titers: anti-viral effect of IMU-838 on SARS-CoV-2 was observed
[12]; day 28, FAS
  proportion of patients reaching clinical improvement (as assessed by the investigators): 90.9%
  proportion of patients reaching clinical recovery: 71.3%
[12]; elderly patients (65 years or older), day 14, mFAS
  patients reaching WHO score improvement by two points: 36.4%
[12]; human, in vivo
  acceleration of 75% probability to reach clinical improvement (centrally calculated) vs placebo: 2.9 days
  acceleration of 75% probability to reach clinical improvement (investigator assessment) vs placebo: 3.8 days and 4.8 days
  reduction of D-dimer vs placebo: more effective reduction
  shortening of third patient quartile for duration of hospitalization vs placebo: 3.4 days
[12]; mFAS
  time to clinical improvement vs placebo: shorter
[12]; within the first 8 days after onset of symptoms, mFAS
  clinical improvement (centrally calculated) when used early: observed to be better
[13]
  plasma levels achieved in the blood of treated patients: 10 to 30 µM
[14]; RT (reverse transcriptase)
  IC50: 2.2 µM
[14]; human PBMCs, reverse transcriptase activity and p24, read-out: median effective dose (ED50) HIV
  EC50: ~2 µM
[14]; p24
  IC50: 2 µM
[15]; Huh7 cells, Luc activity readout, read-out: median ED50 HCV replicon
  EC50: 4.6 µM
[15]; Replicon, luciferase
  IC50: 4.6 µM
[16]
  IC50: 2.8 µM
[17]
  CC50: 88 µM
[18]
  CC50: > 100 µM
[19]
  CC50: > 60 µM
  CC90: > 60 µM
[20]
  IC50: > 30 µM
[21]
  IC50: > 50 µM
[22]
  CC90 at 3 days: > 100 µM
[23]
  drug concentrations with no cytotoxicity observed: up to 100 μM
[24]
  hematological effects of COVID19: did not intensify
  rate of infections and infestations and rate of liver events vs placebo: did not increase
  rate of serious adverse events and adverse events leading to treatment discontinuation vs placebo: not increased

## COc1cccc(-c2ccc(NC(=O)C3=C(C(=O)O)CCC3)c(F)c2)c1 [Vidofludimus, 2-((3-fluoro-3′-methoxy-[1,1′-biphenyl]-4-yl)carbamoyl)cyclopent-1-enecarboxylic acid]
[25]
  IC50: 4.1 µM
[26]
  off-target activity on EGFR: does not hit
[27]
  off-target activity on Aurora-A kinases: does not hit
[28]
  effects on bone marrow: lack detrimental effects on bone marrow
[29]
  blood plasma half-life: 30 h

## Cc1oncc1C(=O)Nc1ccc(C(F)(F)F)cc1 [leflunomide]
[30]
  blood plasma half-life: 384 to 456 h
  dosing time to achieve therapeutic trough levels: up to 2 months
